Experiment [1] deals with GDP-bound NRAS wild-type protein (Homo sapiens, UniProt P01111). Kind of experiment: Binding to NRAS by surface plasmon resonance (SPR), KD and KD ratio to KRAS. To be noted: ratio of the KD value with respect to GDP-bound NRAS wild-type protein to the KD value with respect to KRAS. In a few lines: (§1)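 Compound binding is evaluated by SPR single-cycle kinetics, with concentrations added intermittently from low to high for 75 s each. Target surfaces carry GDP-loaded biotinylated Avi-RAS at about 100–300 RU, regenerated after each cycle; temperature 30°C. A 1:1 binding model gives KD.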
Sequence of GDP-bound NRAS wild-type protein (P01111 whole entry): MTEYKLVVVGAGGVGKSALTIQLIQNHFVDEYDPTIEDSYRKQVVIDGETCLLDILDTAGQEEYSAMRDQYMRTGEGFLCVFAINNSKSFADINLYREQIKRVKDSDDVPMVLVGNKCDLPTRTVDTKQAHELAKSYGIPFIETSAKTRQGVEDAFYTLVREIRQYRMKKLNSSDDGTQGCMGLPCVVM
(In SPR one partner is held on a chip, and binding of the other changes the refractive index at the surface.)

The target of a further experiment is HRAS wild-type protein (Homo sapiens, UniProt P01112). Kind of experiment: Binding to HRAS by surface plasmon resonance (SPR), KD and KD ratio to KRAS. The settings on record: ratio of the KD value with respect to HRAS wild-type protein to the KD value with respect to KRAS. In a few lines:
as §1

For experiment [2], the system named is human lung cancer strain NCI-H441. In kind it is cell-based. Summed up:
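Proliferation was scored by […] measured after the reagent was added to cultures kept at 37°C in 5% carbon dioxide.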

SMILES strings stand for the structures.

Sequence of HRAS wild-type protein (P01112 whole entry): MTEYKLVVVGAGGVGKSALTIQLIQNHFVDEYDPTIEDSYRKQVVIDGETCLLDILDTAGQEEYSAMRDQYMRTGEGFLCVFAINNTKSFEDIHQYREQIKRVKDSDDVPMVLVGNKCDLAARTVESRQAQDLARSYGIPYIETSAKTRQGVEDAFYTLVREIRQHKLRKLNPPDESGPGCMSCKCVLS

`CCC[C@H]1C(=O)N[C@@H]([C@@H](C)CC)C(=O)N2CCC[C@H]2C(=O)N(C)[C@H]2C/C=C\CCN(C2=O)[C@@H](Cc2ccc(C(F)(F)F)cc2)C(=O)N(C)CC(=O)N[C@@H](CCc2ccc(C(F)(F)F)c(OC)c2)C(=O)N2C[C@H](OCC)C[C@H]2C(=O)N(C)C2(CCC2)C(=O)N(C)[C@@H](C(CC)CC)C(=O)N(C)[C@H](C(=O)N(C)C)CC(=O)N1C` [PP2317]: the “NRAS /KRAS” value in experiment [1] is “A (a compound having 10 or more and less than 20 is denoted as A)”. Besides, on HRAS wild-type protein, the “HRAS /KRAS” value is “A (a compound having 10 or more and less than 20 is denoted as A)”. Further, inhibition in experiment [2] was half-maximal at 12.5 nM (IC50).

Consider `CCOC[C@H]1C(=O)N[C@@H]([C@@H](C)CC)C(=O)N2CCC[C@H]2C(=O)N(C)[C@H]2C/C=C\CCN(C2=O)[C@@H](Cc2ccc(C(F)(F)F)cc2)C(=O)N(C)CC(=O)N[C@@H](CCc2ccc(C(F)(F)F)c(OC)c2)C(=O)N2C[C@H](OCC)C[C@H]2C(=O)N(C)C2(CCC2)C(=O)N(C)[C@@H](C(CC)CC)C(=O)N(C)[C@H](C(=O)N(C)C)CC(=O)N1C` [PP2319], for which the “NRAS /KRAS” value in experiment [1] was “AA (a compound having 20 or more is denoted as AA)”. Besides, on HRAS wild-type protein, the “HRAS /KRAS” value was “A (a compound having 10 or more and less than 20 is denoted as A)”. Besides, the IC50 (usually the midpoint of a concentration-inhibition curve) in experiment [2] is 9.6 nM.

Consider `CCCOC[C@H]1C(=O)N[C@@H]([C@@H](C)CC)C(=O)N2CCC[C@H]2C(=O)N(C)[C@H]2C/C=C\CCN(C2=O)[C@@H](Cc2ccc(C(F)(F)F)cc2)C(=O)N(C)CC(=O)N[C@@H](CCc2ccc(C(F)(F)F)c(OC)c2)C(=O)N2C[C@H](OCC)C[C@H]2C(=O)N(C)C2(CCC2)C(=O)N(C)[C@@H](C2CCCC2)C(=O)N(C)[C@H](C(=O)N(C)C)CC(=O)N1C` [PP2322], for which the “NRAS /KRAS” value in experiment [1] is “A (a compound having 10 or more and less than 20 is denoted as A)”. The “HRAS /KRAS” value at HRAS wild-type protein is “B (a compound having 3 or more and less than 10 is denoted as B)”. In addition, in experiment [2], the midpoint of inhibition, the IC50, lay at 5.8 nM.

Turning to `CCCOC[C@H]1C(=O)N[C@@H]([C@@H](C)CC)C(=O)N(C2CC2)CC(=O)N(C)[C@H]2C/C=C\CCN(C2=O)[C@@H](Cc2ccc(C)cc2)C(=O)N(C)CC(=O)N[C@@H](CCc2ccc(C(F)(F)F)c(OC)c2)C(=O)N2C[C@H](OCC)C[C@H]2C(=O)N(C)C2(CCC2)C(=O)N(C)[C@@H](C(CC)CC)C(=O)N(C)[C@H](C(=O)N(C)C)CC(=O)N1C` [PP2327], in experiment [1], the “NRAS /KRAS” value was “A (a compound having 10 or more and less than 20 is denoted as A)”. For the same compound, the “HRAS /KRAS” value at HRAS wild-type protein is “A (a compound having 10 or more and less than 20 is denoted as A)”. Besides, the IC50 in experiment [2] amounted to 9.9 nM.

As to `CCC[C@H]1C(=O)N[C@@H]([C@@H](C)CC)C(=O)N(C2CC2)CC(=O)N(C)[C@H]2C/C=C\CCN(C2=O)[C@@H](Cc2ccc(C)cc2)C(=O)N(C)CC(=O)N[C@@H](CCc2ccc(C(F)(F)F)c(OC)c2)C(=O)N2C[C@H](OCC)C[C@H]2C(=O)N(C)C2(CCC2)C(=O)N(C)[C@@H](C2CCCC2)C(=O)N(C)[C@H](C(=O)N(C)C)CC(=O)N1C` [PP2328], in experiment [1], the “NRAS /KRAS” value was “A (a compound having 10 or more and less than 20 is denoted as A)”. For the same compound, the “HRAS /KRAS” value at HRAS wild-type protein is “A (a compound having 10 or more and less than 20 is denoted as A)”. Besides, the midpoint of inhibition in experiment [2], the IC50, lay at 2.2 nM.

For `CCC[C@H]1C(=O)N[C@@H]([C@@H](C)CC)C(=O)N2CCC[C@H]2C(=O)N(C)[C@H]2C/C=C\CCN(C2=O)[C@@H](Cc2ccc(C)cc2)C(=O)N(C)CC(=O)N[C@@H](CCc2ccc(C(F)(F)F)c(OC)c2)C(=O)N2C[C@H](OCC)C[C@H]2C(=O)N(C)C2(CCC2)C(=O)N(C)[C@@H](C(CC)CC)C(=O)N(C)[C@H](C(=O)N(C)C)CC(=O)N1C` [PP2329], the “NRAS /KRAS” value in experiment [1] is “A (a compound having 10 or more and less than 20 is denoted as A)”. For the same compound, at HRAS wild-type protein, the “HRAS /KRAS” value is “A (a compound having 10 or more and less than 20 is denoted as A)”. The compound further gave an IC50 in experiment [2] of 6.5 nM.

Take `CCCOC[C@H]1C(=O)N[C@@H]([C@@H](C)CC)C(=O)N(C2CC2)CC(=O)N(C)[C@H]2C/C=C\CCN(C2=O)[C@@H](Cc2ccc(C)cc2)C(=O)N(C)CC(=O)N[C@@H](CCc2ccc(C(F)(F)F)c(OC)c2)C(=O)N2C[C@H](OCC)C[C@H]2C(=O)N(C)C2(CCC2)C(=O)N(C)[C@@H](C2CCCC2)C(=O)N(C)[C@H](C(=O)N(C)C)CC(=O)N1C` [PP2330]: the “NRAS /KRAS” value in experiment [1] was “A (a compound having 10 or more and less than 20 is denoted as A)”. Also, the “HRAS /KRAS” value on HRAS wild-type protein is “A (a compound having 10 or more and less than 20 is denoted as A)”. The same compound yielded an IC50 in experiment [2] of 5.5 nM.

For the compound `CCCOC[C@H]1C(=O)N[C@@H]([C@@H](C)CC)C(=O)N2CCC[C@H]2C(=O)N(C)[C@H]2C/C=C\CCN(C2=O)[C@@H](Cc2ccc(C)cc2)C(=O)N(C)CC(=O)N[C@@H](CCc2ccc(C(F)(F)F)c(OC)c2)C(=O)N2C[C@H](OCC)C[C@H]2C(=O)N(C)C2(CCC2)C(=O)N(C)[C@@H](C(CC)CC)C(=O)N(C)[C@H](C(=O)N(C)C)CC(=O)N1C` [PP2331], in experiment [1], the “NRAS /KRAS” value is listed as “AA (a compound having 20 or more is denoted as AA)”. Further, the “HRAS /KRAS” value at HRAS wild-type protein was “A (a compound having 10 or more and less than 20 is denoted as A)”. In experiment [2], this compound showed an IC50 of 11.8 nM.

Consider `CCC[C@H]1C(=O)N[C@@H]([C@@H](C)CC)C(=O)N2CCC[C@H]2C(=O)N(C)[C@H]2C/C=C\CCN(C2=O)[C@@H](Cc2ccc(C)cc2)C(=O)N(C)CC(=O)N[C@@H](CCc2ccc(C(F)(F)F)c(OC)c2)C(=O)N2C[C@H](OCC)C[C@H]2C(=O)N(C)C2(CCC2)C(=O)N(C)[C@@H](C2CCCC2)C(=O)N(C)[C@H](C(=O)N(C)C)CC(=O)N1C` [PP2332], for which, in experiment [1], the “NRAS /KRAS” value is “A (a compound having 10 or more and less than 20 is denoted as A)”. Also, the “HRAS /KRAS” value at HRAS wild-type protein was “B (a compound having 3 or more and less than 10 is denoted as B)”. Besides, half-maximal inhibition in experiment [2] (IC50) was put at 3.8 nM.

Turning to `CCCOC[C@H]1C(=O)N[C@@H]([C@@H](C)CC)C(=O)N2CCC[C@H]2C(=O)N(C)[C@H]2C/C=C\CCN(C2=O)[C@@H](Cc2ccc(C)cc2)C(=O)N(C)CC(=O)N[C@@H](CCc2ccc(C(F)(F)F)c(OC)c2)C(=O)N2C[C@H](OCC)C[C@H]2C(=O)N(C)C2(CCC2)C(=O)N(C)[C@@H](C2CCCC2)C(=O)N(C)[C@H](C(=O)N(C)C)CC(=O)N1C` [PP2334], the “NRAS /KRAS” value in experiment [1] was “A (a compound having 10 or more and less than 20 is denoted as A)”. The “HRAS /KRAS” value at HRAS wild-type protein is “B (a compound having 3 or more and less than 10 is denoted as B)”. The same compound came in with an IC50 in experiment [2] of 5.7 nM.

As to `CCO[C@@H]1C[C@H]2C(=O)N(C)C3(CCC3)C(=O)N(C)[C@@H](C(CC)CC)C(=O)N(C)[C@H](C(=O)N(C)C)CC(=O)N(C)[C@@H](COC)C(=O)N[C@@H]([C@@H](C)CC)C(=O)N(C)CC(=O)N(C)[C@H]3C/C=C\CCN(C3=O)[C@@H](CC3CCCCC3)C(=O)N(C)CC(=O)N[C@@H](CCc3ccc(C(F)(F)F)c(OC)c3)C(=O)N2C1` [PP2335], the “NRAS /KRAS” value in experiment [1] is “A (a compound having 10 or more and less than 20 is denoted as A)”. Moreover, on HRAS wild-type protein, the “HRAS /KRAS” value is “A (a compound having 10 or more and less than 20 is denoted as A)”. The IC50 in experiment [2] came out at 64.2 nM.

Regarding `CCC[C@H]1C(=O)N[C@@H]([C@@H](C)CC)C(=O)N(C)CC(=O)N(C)[C@H]2C/C=C\CCN(C2=O)[C@@H](CC2CCCCC2)C(=O)N(C)CC(=O)N[C@@H](CCc2ccc(C(F)(F)F)c(OC)c2)C(=O)N2C[C@H](OCC)C[C@H]2C(=O)N(C)C2(CCC2)C(=O)N(C)[C@@H](C2CCCC2)C(=O)N(C)[C@H](C(=O)N(C)C)CC(=O)N1C` [PP2336], in experiment [1], the “NRAS /KRAS” value was “A (a compound having 10 or more and less than 20 is denoted as A)”. For the same compound, at HRAS wild-type protein, the “HRAS /KRAS” value is “A (a compound having 10 or more and less than 20 is denoted as A)”. In experiment [2], this compound yielded an IC50 of 16.3 nM.

Take `CCO[C@@H]1C[C@H]2C(=O)N(C)C3(CCC3)C(=O)N(C)[C@@H](C(CC)CC)C(=O)N(C)[C@H](C(=O)N(C)C)CC(=O)N(C)[C@@H](COC)C(=O)N[C@@H]([C@@H](C)CC)C(=O)N(C3CC3)CC(=O)N(C)[C@H]3C/C=C\CCN(C3=O)[C@@H](CC3CCCCC3)C(=O)N(C)CC(=O)N[C@@H](CCc3ccc(C(F)(F)F)c(OC)c3)C(=O)N2C1` [PP2339]: the “NRAS /KRAS” value in experiment [1] is “A (a compound having 10 or more and less than 20 is denoted as A)”. For the same compound, the “HRAS /KRAS” value on HRAS wild-type protein is “A (a compound having 10 or more and less than 20 is denoted as A)”. In addition, inhibition in experiment [2] was half-maximal at 59.3 nM (IC50).

Turning to `CCC[C@H]1C(=O)N[C@@H]([C@@H](C)CC)C(=O)N2CCC[C@H]2C(=O)N(C)[C@H]2C/C=C\CCN(C2=O)[C@@H](CC2CCCCC2)C(=O)N(C)CC(=O)N[C@@H](CCc2ccc(C(F)(F)F)c(OC)c2)C(=O)N2C[C@H](OCC)C[C@H]2C(=O)N(C)C2(CCC2)C(=O)N(C)[C@@H](C(CC)CC)C(=O)N(C)[C@H](C(=O)N(C)C)CC(=O)N1C` [PP2341], in experiment [1], the “NRAS /KRAS” value was “A (a compound having 10 or more and less than 20 is denoted as A)”. The “HRAS /KRAS” value on HRAS wild-type protein was “A (a compound having 10 or more and less than 20 is denoted as A)”. The compound also gave an IC50 in experiment [2] of 133 nM.

As to `CCC[C@H]1C(=O)N[C@@H]([C@@H](C)CC)C(=O)N2CCC[C@H]2C(=O)N(C)[C@H]2C/C=C\CCN(C2=O)[C@@H](CC2CCCCC2)C(=O)N(C)CC(=O)N[C@@H](CCc2ccc(C(F)(F)F)c(OC)c2)C(=O)N2C[C@H](OCC)C[C@H]2C(=O)N(C)C2(CCC2)C(=O)N(C)[C@@H](C2CCCC2)C(=O)N(C)[C@H](C(=O)N(C)C)CC(=O)N1C` [PP2344], the “NRAS /KRAS” value in experiment [1] is “A (a compound having 10 or more and less than 20 is denoted as A)”. Further, the “HRAS /KRAS” value at HRAS wild-type protein is “A (a compound having 10 or more and less than 20 is denoted as A)”. The compound also showed an IC50 in experiment [2] of 44.9 nM.

The record behind these values is patent publication EP4603105A1, “PHARMACEUTICAL COMPOSITION CONTAINING CYCLIC COMPOUND HAVING SELECTIVE KRAS INHIBITORY EFFECT AGAINST HRAS AND NRAS” (CHUGAI SEIYAKU KABUSHIKI KAISHA, priority 2022, dated 2024).
